The target in this assay is T1, Human Aryl Hydrocarbon Receptor (AhR) (Homo sapiens, UniProt P35869).
T1 construct: purchased INDIGO Bioscience IB06001-32; host or cells: AhR Reporter Cell (the kit's proprietary reporter cells)
T1 sequence (P35869 11-848): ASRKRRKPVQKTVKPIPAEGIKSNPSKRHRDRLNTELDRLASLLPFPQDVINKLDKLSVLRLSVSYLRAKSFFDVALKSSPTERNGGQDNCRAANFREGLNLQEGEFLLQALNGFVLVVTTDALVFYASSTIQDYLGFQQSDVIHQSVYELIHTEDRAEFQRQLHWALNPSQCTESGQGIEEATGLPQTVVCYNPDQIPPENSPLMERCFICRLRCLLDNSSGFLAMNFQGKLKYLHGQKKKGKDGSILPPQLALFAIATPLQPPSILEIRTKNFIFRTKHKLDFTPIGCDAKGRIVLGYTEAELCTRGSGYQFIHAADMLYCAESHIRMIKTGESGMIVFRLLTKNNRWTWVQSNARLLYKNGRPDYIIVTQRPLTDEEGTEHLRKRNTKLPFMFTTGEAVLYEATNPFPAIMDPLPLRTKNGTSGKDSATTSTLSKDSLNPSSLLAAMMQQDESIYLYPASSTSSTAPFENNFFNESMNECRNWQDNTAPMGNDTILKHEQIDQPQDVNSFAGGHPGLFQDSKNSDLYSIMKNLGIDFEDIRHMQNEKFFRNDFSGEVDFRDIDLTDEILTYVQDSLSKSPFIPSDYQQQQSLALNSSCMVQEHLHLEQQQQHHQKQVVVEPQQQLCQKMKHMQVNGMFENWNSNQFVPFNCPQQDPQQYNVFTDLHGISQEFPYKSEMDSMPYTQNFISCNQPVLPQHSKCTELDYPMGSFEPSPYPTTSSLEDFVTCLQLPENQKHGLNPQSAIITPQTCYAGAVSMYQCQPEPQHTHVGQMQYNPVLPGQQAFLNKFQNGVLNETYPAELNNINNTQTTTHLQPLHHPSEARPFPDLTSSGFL
As to the kind of experiment: AhR reporter assay (Human Aryl Hydrocarbon Receptor (AhR) Reporter Assay System, INDIGO Bioscience). Conditions: AHR inhibition at 10 nM test compound; AhR Reporter Cells activated with 200 μM kynurenic acid, 24 hours; firefly luciferase; normalized by positive and negative controls. In kind it is cell-based. On the procedure: The AhR reporter assay was performed following the protocol of the Human Aryl Hydrocarbon Receptor (AhR) Reporter Assay System (INDIGO Bioscience, #IB06001-32). AhR Reporter Cell was thawed and pre-incubated in Cell Recovery Medium (CRM) for 6 hours. The media was then removed and the cells were incubated with Compound Screening Medium (CSM) supplemented with 200 μM kynurenic acid for 24 hours in the absence (negative control) or presence of 10 nM test compounds. For positive inhibition control, cells activated with 200 μM kynurenic acid were incubated in the presence of literature AHR antagonists; alternatively un-activated cells were used as positive inhibition control. Following 24 hours incubation, the media was removed and Luciferase Detection Reagent (LDR) added. The firefly luciferase activity was quantified using a plate reader. Results were normalized by positive and negative controls.
The results of AHR inhibition at 10 nM for compounds as disclosed herein is reported in the below table.
In general terms: Reporter assays use an easily measured gene product as a stand-in for the process of interest.

The structures appear in SMILES notation.

Turning to `C[C@@H](CO)n1cnc2c(-c3cnn(C)c3)nc(-c3ccc(-c4ccccc4F)nc3)cc2c1=O` [Compound 1], the inhibition at 0.01 µM was found to be 56%.
For `C[C@@H](CO)n1cnc2c(-c3cnn(C)c3)nc(/C=C/c3ccccc3)cc2c1=O` [Compound 2], the inhibition at 0.01 µM is 51%.
In the case of `C[C@@H](CO)n1cnc2c(-c3cnn(C)c3)nc(-c3ccc(N4CCOCC4)cc3)cc2c1=O` [Compound 3], the inhibition at 0.01 µM turned out to be 66%.
Take `C[C@@H](CO)n1cnc2c(-c3cnn(C)c3)nc(-c3ccc(N4CC5CCC(C4)O5)cc3)cc2c1=O` [Compound 4]: the inhibition at 0.01 µM came out at 53%.
With `C[C@@H](CO)n1cnc2c(-c3cnn(C)c3)nc(-c3ccc(C4CCOCC4)cc3)cc2c1=O` [Compound 5], the inhibition at 0.01 µM was found to be 40%.
In the case of `C[C@@H](CO)n1cnc2c(-c3cnn(C)c3)nc(-c3ccc(-c4ccc(F)cc4)nc3)cc2c1=O` [Compound 6], the inhibition at 0.01 µM turned out to be 96%.
Regarding `C[C@@H](CO)n1cnc2c(-c3cnn(C)c3)nc(-c3ccc(-c4ccc(Cl)cc4)nc3)cc2c1=O` [Compound 7], the inhibition at 0.01 µM came to 90%.
With `C[C@@H](CO)n1cnc2c(-c3cnn(C)c3)nc(-c3ccc(-c4ccc(F)nc4)nc3)cc2c1=O` [Compound 8], the inhibition at 0.01 µM was 83%.
As for `C[C@@H](CO)n1cnc2c(-c3cnn(C)c3)nc(-c3ccc(C4=CCOCC4)nc3)cc2c1=O` [Compound 9], the inhibition at 0.01 µM was 29%.
On to `Cc1nn(C)c2cc(-c3cc4c(=O)n([C@@H](C)CO)cnc4c(-c4cnn(C)c4)n3)ccc12` [Compound 10], for which the inhibition at 0.01 µM was 28%.
On to `C[C@@H](CO)n1cnc2c(-c3cnn(C)c3)nc(-c3ccc(C4CCOCC4)nc3)cc2c1=O` [Compound 11], for which the inhibition at 0.01 µM turned out to be 3%.
As to `C[C@@H](CO)n1cnc2c(-c3cnn(C)c3)nc(-c3ccc(-c4cccc(F)c4)nc3)cc2c1=O` [Compound 12], the inhibition at 0.01 µM was found to be 72%.
Under `C[C@@H](CO)n1cnc2c(-c3cnn(C)c3)nc(-c3ccc(N4CCCCC4)cc3)cc2c1=O` [Compound 13] stands 64%; under `C[C@@H](CO)n1cnc2c(-c3cnn(C)c3)nc(N3CCN(c4ccc(F)cc4)CC3)cc2c1=O` [Compound 14], 85%; under `C[C@@H](CO)n1cnc2c(-c3cnn(C)c3)nc(N3Cc4ccccc4C3)cc2c1=O` [Compound 15], 99%.
Take `C[C@@H](CO)n1cnc2c(-c3cnn(C)c3)nc(N3CC=C(c4ccc(F)cc4)CC3)cc2c1=O` [Compound 16]: the inhibition at 0.01 µM amounted to 82%.
As to `C[C@@H](CO)n1cnc2c(-c3cnn(C)c3)nc(N3CC4CCC(C3)N4c3ccc(F)cc3)cc2c1=O` [Compound 17], the inhibition at 0.01 µM was 35%.
For the molecule `C[C@@H](CO)n1cnc2c(-c3cnn(C)c3)nc(/C=C/c3ccc(F)cc3)cc2c1=O` [Compound 20], the inhibition at 0.01 µM was found to be 70%.
For the molecule `C[C@@H](CO)n1cnc2c(-c3cnn(C)c3)nc(-c3ccc(C(=O)N4CCOCC4)cc3)cc2c1=O` [Compound 21], the inhibition at 0.01 µM is -0.3%.
Take `C[C@@H](CO)n1cnc2c(-c3cnn(C)c3)nc(-c3ccc(N4CCOCC4)nc3)cc2c1=O` [Compound 25]: the inhibition at 0.01 µM amounted to 8%.
As to `C[C@@H](CO)n1cnc2c(-c3cnn(C)c3)nc(-c3cnc(N4CCOCC4)nc3)cc2c1=O` [Compound 26], the inhibition at 0.01 µM stood at 24%.
Take `CC1COCCN1c1ccc(-c2cc3c(=O)n([C@@H](C)CO)cnc3c(-c3cnn(C)c3)n2)cn1` (stereo partly shown) [Compound 27]: the inhibition at 0.01 µM is 45%.
As to `C[C@@H](CO)n1cnc2c(-c3cnn(C)c3)nc(-c3ccc(C(=O)N4CCCNCC4)cc3)cc2c1=O` [Compound 28], the inhibition at 0.01 µM was -5%.
As for `C[C@@H](CO)n1cnc2c(-c3cnn(C)c3)nc(-c3ccc(C(=O)N4CCC(O)C4)cc3)cc2c1=O` (stereo partly shown) [Compound 29], the inhibition at 0.01 µM was 8%.
For `C[C@@H](CO)n1cnc2c(-c3cnn(C)c3)nc(-c3ccc(C(=O)N4CCC(N)CC4)cc3)cc2c1=O` [Compound 30], the inhibition at 0.01 µM was -5%.

The term inhibition denotes the drop in the measured response relative to a control, in per cent.
